Experimental data taken from article PMC10791743, “Selective CK1α degraders exert antiproliferative activity against a broad range of human cancer cell lines” (Nature Communications, 2024).
“And” between values parts separate entries of the source, which are not always exact repeats. Equal values may be shown once.

Columns and labels:
MDR1 (P-gp) = assay: MDCKII-MDR1 cell-based permeability assay; assay type: in vitro ADME; details: dog, MDCK-MDR1, pH 7.4
Procedure: (§1) page 30: ADME Methods Aqueous solubility assay: Solubility assays were conducted using a Biomek FX lab automation workstation (Beckman Coulter, Inc., Fullerton, CA) and μSOL Evolution software (pION Inc., Woburn, MA). In a 96-well microplate (Cat. No: 3363, Corning Incorporated, Salt Lake, UT), 10 μL of a 10 mM test compound stock in DMSO was added to 190 μL 1-propanol (Thermo Scientific, spectroscopy, Cat. No: 434360010, Fair Lawn, NJ) to create a reference stock plate. From this reference stock plate, 5 μL solutions were mixed with 70 μL 1-propanol and 75 μL Dulbecco's Phosphate Buffered Saline (DPBS, 1X, GibcoTM, Cat. No: 14190-144, Thermo Fisher Scientifics, Waltham, MA) to generate the reference plate (high sensitivity UV plate, Cat. No: 110286, pION Inc., Woburn, MA). In a 96-well storage plate (Cat. No: 201276-100, Agilent, Santa Clara, CA), 6 μL of a 10 mM test compound stock was added to 600 μL buffer, mixed, sealed, and incubated at room temperature for 18 hours. Following incubation, the suspension was filtered through a 96-well filter plate (PVDF, 0.2 μM, Cat. No: 110037, pION Inc., Woburn, MA). The filtrate (75 μL) was combined with 75 μL 1-propanol to create the sample plate. UV spectra of the reference and sample plates were then read, and calculations based on the area under the curve (AUC) of the UV spectra were performed using μSOL Evolution software. All compounds were tested in triplicate wells. MDCKII-MDR1 cell-based permeability assay: High-throughput […]1 permeability assay was performed in the Transwell® 0.4 μm polycarbonate membrane 96-well system with modified methods1,2, […]1 cells were maintained at 37 °C in a humidified incubator with an atmosphere of 5% CO2. The cells were cultured in 75 cm2 flasks with Eagle's Minimum Essential Medium (EMEM) containing 10% fetal bovine serum (FBS), 1% non-essential amino acids (NEAA), 100 units/mL of penicillin, and 100 μg/mL of streptomycin. The […]1 cells were seeded onto inserts at a density of 1×10^4 cells/insert separately. The medium in the wells was changed every other day, and the trans epithelial electrical resistance (TEER) value was measured page 31: using a REMS Autosampler (World Precision Instruments, Sarasota, […]1 cells were grown for 5 days to reach a consistent confluency level monitored by epithelial voltohmmeter to confirm the intactness of the confluent polarized monolayer. For transport experiments, each cultured monolayer on the 96-well plate was washed twice with a transport buffer (HBSS/25 mM […] The cell-based permeability assay was initiated by the addition of each compound solution (10 μmol/L) into inserts (apical side, A) or receivers (basolateral side, B). After incubated […] (if basal to apical permeability), and concentrations were assessed by UPLC/MS (Waters; Milford, MA). All compounds were tested in triplicates. The A→B (or B→A) apparent permeability coefficients (Papp) of each compound were calculated using the equation (3): […], where dQ/dt equals the flux of a drug across the monolayer, the parameters of A equals the surface area of total insert well, and C0 is the initial concentration of substrate in the donor compartment. The efflux ratio was determined by dividing the Papp in the B-A direction by the Papp in the A-B direction. […] NADPH regenerating agent solutions A and B (Corning GentestTM, Cat. No: 451220) were purchased from Discovery Labware (Woburn, MA). Mouse liver microsomes (CD-1, pooled, GibcoTM, Cat. No: MSMCPL) were obtained from Thermo Fisher Scientific (Fredrick, MD). Pooled human liver microsomes (mixed gender, Cat. No: E0630) were purchased from XenoTech (Lenexa, KS). Stock solutions of test compounds were prepared at 10 mM in DMSO. Sample preparation for microsomal stability was modified from Di's publications3,4. […] and 4 hours) by Labcyte Echo 650 acoustic dispenser (Beckman Coulter Life Sciences, Indianapolis, IN). All compounds were tested in triplicate per time point. […]

[1] = tested on: MOLM-13 cells overexpressing FLAG-tagged wild type CK1α; assay: CK1α mutant rescue, CTG viability, FLAG-CK1α wild type MOLM-13; assay type: cell-based, human
Procedure: To evaluate the contribution of the CK1α degradation in SJ3149-mediated cytotoxicity, we utilized the degradation-resistant mutant CK1α G40N[41]. MOLM-13 cells were transduced with lentivirus to overexpress FLAG-tagged wild type CK1α or the G40N mutant, which removes the essential glycine in the CK1α degron G-loop.
The media was changed after cells rested in the 37 °C incubator overnight. […] As described above in the Molecular Glue Library Screening section, transduced MOLM-13 cells were seeded in 384-well plates at 1250 cells per well and allowed to rest overnight. 30 nl of CK1α degraders of interest were deposited on the cells using an Echo 650 acoustic liquid handler […]. […] This was done twice for a total of six technical replicates.

MDCKII-MDR1 cells = assay: MDCKII-MDR1 cell-based permeability assay; assay type: in vitro ADME
Procedure: as §1

## O=C1CCC(N2Cc3cc(Nc4noc5ccccc45)ccc3C2=O)C(=O)N1 (centres unmarked) [SJ3149]
MDR1 (P-gp); apical to basolateral, read-out: MDCK-MDR1 AB
  Papp A→B at 1 h, 10 μmol/L: 27.7 ×10⁻⁶ cm/s
MDR1 (P-gp); basolateral to apical, read-out: MDCK-MDR1 BA
  Papp B→A at 1 h, 10 μmol/L: 36.5 ×10⁻⁶ cm/s
[1]; Concentration 0.000542
  cell viability percentages, CK1a: 105.205% and 58.6715% and 64.466% and 67.6161% and 69.6541% and 82.1036%
[1]; Concentration 0.001625
  cell viability percentages, CK1a: 74.2908% and 52.9731% and 67.1789% and 57.7783% and 62.7672% and 68.828%
[1]; Concentration 0.004875
  cell viability percentages, CK1a: 36.1307% and 42.7391% and 40.1045% and 39.1839% and 40.0413% and 49.9053%
[1]; Concentration 0.043872
  cell viability percentages, CK1a: 2.187% and 2.943% and 4.508% and 8.798% and 6.315% and 7.182%
[1]; Concentration 0.131617
  cell viability percentages, CK1a: 3.39% and 3.498% and 5.044% and 4.581% and 3.4782% and 4.037%
[1]; Concentration 0.394851
  cell viability percentages, CK1a: 2.449% and 1.756% and 2.718% and 2.322% and 1.473% and 1.9709%
[1]; Concentration 1.18455
  cell viability percentages, CK1a: 1.709% and 1.723% and 2.012% and 1.573% and 1.103% and 1.1327%
[1]; Concentration 3.55366
  cell viability percentages, CK1a: 1.548% and 0.8978% and 0.8701% and 0.5259% and 0.4164% and 0.8076%
[1]; FLAG-CK1a WT cells
  Bottom (line fit, sigmoidal 4PL) of cell viability, CK1a: 1.012%
  Top (line fit, sigmoidal 4PL) of cell viability, CK1a: 80.73%
[1]; Homo sapiens, MOLM-13, read-out: IC50 (line fit, sigmoidal 4PL) of cell viability, CK1a
  IC50: 5.26 nM

## O=C1CCC(N2Cc3cc(Nc4noc5ccccc45)ccc3C2=O)C(=O)N1 (centres unmarked) [SJ001043149-1]
MDCKII-MDR1 cells; A2B
  Papp (*10^6 cm/s), A2B, single replicate: 35.9761 *10^6 cm/s and 11.2244 *10^6 cm/s and 35.8135 *10^6 cm/s
  Papp (nm/s), A2B, single replicate: 359.761 nm/s and 112.244 nm/s and 358.135 nm/s
MDCKII-MDR1 cells; A2B, average of 3
  AVG Papp A 2 B: 27.6713 ×10⁻⁶ cm/s
MDCKII-MDR1 cells; B2A
  Papp (*10^6 cm/s), B2A, single replicate: 44.7992 *10^6 cm/s and 31.6544 *10^6 cm/s and 32.9997 *10^6 cm/s
  Papp (nm/s), B2A, single replicate: 447.992 nm/s and 316.544 nm/s and 329.997 nm/s
MDCKII-MDR1 cells; B2A / A2B
  Efflux Ratio: 1.318
MDCKII-MDR1 cells; B2A, average of 3
  AVG Papp B 2 A: 36.4845 ×10⁻⁶ cm/s
